Experimental data from the NIST ThermoML archive (doi:10.1007/s10765-009-0602-6).
Values joined by “and” are separate entries in the source; they are usually repeats but may differ in a detail not shown here. Identical values can stand only once.

Assay: molar heat capacity at constant volume; xn = mol fraction of the nth substance listed
Settings: x1 = 0.2607

N [ammonia] + O
Settings	molar heat capacity at constant volume
601.54 K, Fluid (supercritical or subcritical phases), Mass density=301.94 kg/m3, isochoric heat capacity	93.57 J/K/mol
601.55 K, Fluid (supercritical or subcritical phases), Mass density=291.16 kg/m3, isochoric heat capacity	90.62 J/K/mol
601.56 K, Fluid (supercritical or subcritical phases), Mass density=188.05 kg/m3, isochoric heat capacity	61.55 J/K/mol
601.62 K, Fluid (supercritical or subcritical phases), Mass density=285.71 kg/m3, isochoric heat capacity	88.9 J/K/mol
601.63 K, Fluid (supercritical or subcritical phases), Mass density=299.79 kg/m3, isochoric heat capacity	98.44 J/K/mol
601.66 K, Fluid (supercritical or subcritical phases), Mass density=294.44 kg/m3, isochoric heat capacity	99.98 J/K/mol
601.71 K, Fluid (supercritical or subcritical phases), Mass density=285.71 kg/m3, isochoric heat capacity	87.96 J/K/mol
601.71 K, Fluid (supercritical or subcritical phases), Mass density=299.79 kg/m3, isochoric heat capacity	95.13 J/K/mol
601.75 K, Fluid (supercritical or subcritical phases), Mass density=188.05 kg/m3, isochoric heat capacity	64.8 J/K/mol
601.75 K, Fluid (supercritical or subcritical phases), Mass density=195.99 kg/m3, isochoric heat capacity	103.89 J/K/mol
601.75 K, Liquid, Isochoric heat capacity	103.89 J/K/mol
601.79 K, Fluid (supercritical or subcritical phases), Mass density=195.99 kg/m3, isochoric heat capacity	94.8 J/K/mol
601.82 K, Fluid (supercritical or subcritical phases), Mass density=294.44 kg/m3, isochoric heat capacity	98.74 J/K/mol
601.88 K, Fluid (supercritical or subcritical phases), Mass density=376.89 kg/m3, isochoric heat capacity	79.03 J/K/mol
601.89 K, Fluid (supercritical or subcritical phases), Mass density=195.99 kg/m3, isochoric heat capacity	87.6 J/K/mol
601.97 K, Fluid (supercritical or subcritical phases), Mass density=297.6 kg/m3, isochoric heat capacity	100.3 J/K/mol
601.97 K, Fluid (supercritical or subcritical phases), Mass density=376.89 kg/m3, isochoric heat capacity	76.68 J/K/mol
601.98 K, Fluid (supercritical or subcritical phases), Mass density=195.99 kg/m3, isochoric heat capacity	77.82 J/K/mol
602.05 K, Fluid (supercritical or subcritical phases), Mass density=271.09 kg/m3, isochoric heat capacity	106.73 J/K/mol
602.05 K, Fluid (supercritical or subcritical phases), Mass density=376.89 kg/m3, isochoric heat capacity	80.09 J/K/mol
602.05 K, Liquid, Isochoric heat capacity	106.73 J/K/mol
602.08 K, Fluid (supercritical or subcritical phases), Mass density=271.09 kg/m3, isochoric heat capacity	104.24 J/K/mol
602.09 K, Fluid (supercritical or subcritical phases), Mass density=271.09 kg/m3, isochoric heat capacity	100.44 J/K/mol
602.12 K, Fluid (supercritical or subcritical phases), Mass density=271.09 kg/m3, isochoric heat capacity	96.3 J/K/mol
602.13 K, Fluid (supercritical or subcritical phases), Mass density=307.35 kg/m3, isochoric heat capacity	96.93 J/K/mol
602.14 K, Fluid (supercritical or subcritical phases), Mass density=312.91 kg/m3, isochoric heat capacity	83.15 J/K/mol
602.22 K, Fluid (supercritical or subcritical phases), Mass density=312.91 kg/m3, isochoric heat capacity	82.81 J/K/mol
602.23 K, Fluid (supercritical or subcritical phases), Mass density=307.35 kg/m3, isochoric heat capacity	92.38 J/K/mol
602.24 K, Fluid (supercritical or subcritical phases), Mass density=271.09 kg/m3, isochoric heat capacity	93.92 J/K/mol
602.26 K, Fluid (supercritical or subcritical phases), Mass density=205.58 kg/m3, isochoric heat capacity	105.31 J/K/mol
602.26 K, Liquid, Isochoric heat capacity	105.31 J/K/mol
602.3 K, Fluid (supercritical or subcritical phases), Mass density=312.91 kg/m3, isochoric heat capacity	81.1 J/K/mol
602.31 K, Fluid (supercritical or subcritical phases), Mass density=205.58 kg/m3, isochoric heat capacity	100.51 J/K/mol
602.38 K, Fluid (supercritical or subcritical phases), Mass density=271.09 kg/m3, isochoric heat capacity	89.02 J/K/mol
602.39 K, Fluid (supercritical or subcritical phases), Mass density=205.58 kg/m3, isochoric heat capacity	86.66 J/K/mol
602.39 K, Fluid (supercritical or subcritical phases), Mass density=312.91 kg/m3, isochoric heat capacity	81.72 J/K/mol
602.4 K, Fluid (supercritical or subcritical phases), Mass density=307.35 kg/m3, isochoric heat capacity	94.4 J/K/mol
602.45 K, Liquid, Isochoric heat capacity	105.13 J/K/mol
602.48 K, Fluid (supercritical or subcritical phases), Mass density=205.58 kg/m3, isochoric heat capacity	75.47 J/K/mol
602.48 K, Fluid (supercritical or subcritical phases), Mass density=243.98 kg/m3, isochoric heat capacity	100.07 J/K/mol
602.48 K, Fluid (supercritical or subcritical phases), Mass density=260.02 kg/m3, isochoric heat capacity	100.07 J/K/mol
602.48 K, Fluid (supercritical or subcritical phases), Mass density=307.35 kg/m3, isochoric heat capacity	89.36 J/K/mol
602.48 K, Fluid (supercritical or subcritical phases), Mass density=312.91 kg/m3, isochoric heat capacity	84.69 J/K/mol
602.48 K, Fluid (supercritical or subcritical phases), Mass density=342.18 kg/m3, isochoric heat capacity	86.56 J/K/mol
602.48 K, Fluid (supercritical or subcritical phases), Mass density=376.89 kg/m3, isochoric heat capacity	81.21 J/K/mol
602.48 K, Fluid (supercritical or subcritical phases), Mass density=456.58 kg/m3, isochoric heat capacity	66.2 J/K/mol
602.51 K, Fluid (supercritical or subcritical phases), Mass density=271.09 kg/m3, isochoric heat capacity	86.04 J/K/mol
602.56 K, Fluid (supercritical or subcritical phases), Mass density=205.58 kg/m3, isochoric heat capacity	77.07 J/K/mol
602.56 K, Fluid (supercritical or subcritical phases), Mass density=243.98 kg/m3, isochoric heat capacity	96.22 J/K/mol
602.56 K, Fluid (supercritical or subcritical phases), Mass density=260.02 kg/m3, isochoric heat capacity	96.22 J/K/mol
602.56 K, Fluid (supercritical or subcritical phases), Mass density=307.35 kg/m3, isochoric heat capacity	92.18 J/K/mol
602.56 K, Fluid (supercritical or subcritical phases), Mass density=342.18 kg/m3, isochoric heat capacity	87.35 J/K/mol
602.62 K, Fluid (supercritical or subcritical phases), Mass density=195.99 kg/m3, isochoric heat capacity	72.88 J/K/mol
602.65 K, Fluid (supercritical or subcritical phases), Mass density=243.98 kg/m3, isochoric heat capacity	98.1 J/K/mol
602.65 K, Fluid (supercritical or subcritical phases), Mass density=260.02 kg/m3, isochoric heat capacity	98.1 J/K/mol
602.65 K, Fluid (supercritical or subcritical phases), Mass density=376.89 kg/m3, isochoric heat capacity	81.09 J/K/mol
602.65 K, Fluid (supercritical or subcritical phases), Mass density=456.58 kg/m3, isochoric heat capacity	68.55 J/K/mol
602.74 K, Fluid (supercritical or subcritical phases), Mass density=205.58 kg/m3, isochoric heat capacity	73.93 J/K/mol
602.74 K, Fluid (supercritical or subcritical phases), Mass density=214.83 kg/m3, isochoric heat capacity	106.91 J/K/mol
602.74 K, Fluid (supercritical or subcritical phases), Mass density=243.98 kg/m3, isochoric heat capacity	94.92 J/K/mol
602.74 K, Fluid (supercritical or subcritical phases), Mass density=260.02 kg/m3, isochoric heat capacity	94.92 J/K/mol
602.74 K, Fluid (supercritical or subcritical phases), Mass density=342.18 kg/m3, isochoric heat capacity	87.43 J/K/mol
602.74 K, Fluid (supercritical or subcritical phases), Mass density=376.89 kg/m3, isochoric heat capacity	79.29 J/K/mol
602.74 K, Liquid, Isochoric heat capacity	106.91 J/K/mol
602.82 K, Fluid (supercritical or subcritical phases), Mass density=214.83 kg/m3, isochoric heat capacity	102.73 J/K/mol
602.82 K, Fluid (supercritical or subcritical phases), Mass density=456.58 kg/m3, isochoric heat capacity	67.55 J/K/mol
602.85 K, Fluid (supercritical or subcritical phases), Mass density=218.92 kg/m3, isochoric heat capacity	108.5 J/K/mol
602.85 K, Liquid, Isochoric heat capacity	108.5 J/K/mol
602.91 K, Fluid (supercritical or subcritical phases), Mass density=214.83 kg/m3, isochoric heat capacity	94.28 J/K/mol
602.91 K, Fluid (supercritical or subcritical phases), Mass density=218.92 kg/m3, isochoric heat capacity	99.09 J/K/mol
602.91 K, Fluid (supercritical or subcritical phases), Mass density=243.98 kg/m3, isochoric heat capacity	106.2 J/K/mol
602.91 K, Fluid (supercritical or subcritical phases), Mass density=311.19 kg/m3, isochoric heat capacity	90.5 J/K/mol
602.91 K, Fluid (supercritical or subcritical phases), Mass density=342.18 kg/m3, isochoric heat capacity	82.9 J/K/mol
602.91 K, Liquid, Isochoric heat capacity	106.2 J/K/mol
602.96 K, Fluid (supercritical or subcritical phases), Mass density=224.53 kg/m3, isochoric heat capacity	111.03 J/K/mol
602.96 K, Fluid (supercritical or subcritical phases), Mass density=230.31 kg/m3, isochoric heat capacity	111.35 J/K/mol
602.96 K, Liquid, Isochoric heat capacity	111.35 J/K/mol and 111.03 J/K/mol
602.97 K, Fluid (supercritical or subcritical phases), Mass density=227.54 kg/m3, isochoric heat capacity	112.45 J/K/mol
602.97 K, Liquid, Isochoric heat capacity	112.45 J/K/mol
602.99 K, Fluid (supercritical or subcritical phases), Mass density=214.83 kg/m3, isochoric heat capacity	91.33 J/K/mol
602.99 K, Fluid (supercritical or subcritical phases), Mass density=224.53 kg/m3, isochoric heat capacity	109.57 J/K/mol
